Where two headings read alike, the source gives them in different places. Ends that are not written are not given here. A value given as a limit tells only on which side of the number the result lay.

In the test the target is T1, SolinPBAN-R (Solenopsis invicta, UniProt L0APC6).
T1 sequence (L0APC6 1-605): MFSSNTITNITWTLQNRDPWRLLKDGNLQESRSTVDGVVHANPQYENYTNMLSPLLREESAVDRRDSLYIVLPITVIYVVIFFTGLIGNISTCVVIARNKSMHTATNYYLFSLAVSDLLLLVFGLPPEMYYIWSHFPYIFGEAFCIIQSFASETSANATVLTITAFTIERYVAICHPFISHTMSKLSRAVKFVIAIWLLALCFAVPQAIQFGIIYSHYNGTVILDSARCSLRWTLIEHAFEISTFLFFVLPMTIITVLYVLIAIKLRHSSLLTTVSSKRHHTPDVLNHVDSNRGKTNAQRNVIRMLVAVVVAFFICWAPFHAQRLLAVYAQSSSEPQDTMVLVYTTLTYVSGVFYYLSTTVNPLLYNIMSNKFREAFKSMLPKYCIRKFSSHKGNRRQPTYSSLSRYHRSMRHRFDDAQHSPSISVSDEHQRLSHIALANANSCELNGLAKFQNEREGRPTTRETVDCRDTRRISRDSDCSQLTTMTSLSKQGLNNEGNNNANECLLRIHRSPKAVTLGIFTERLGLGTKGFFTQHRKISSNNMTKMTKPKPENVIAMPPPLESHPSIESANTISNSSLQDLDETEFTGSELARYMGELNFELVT
As to the kind of experiment: SolinPBAN-R/peptide binding assay (calcium-based Fluo-4AM fluorescence in Sf9 cells expressing SolinPBAN-R). It is filed as cell-based. The following applies: for EC50: SolinPBAN-R expressed in Sf9 cells, Fluo-4AM fluorescence relative to 1 µM ionomycin maximum, read-out: EC50 (half-maximal effective concentration), binding activity to SolinPBAN-R. How it is done:
Poly(A) RNA was isolated from whole bodies and heads of S. invicta workers and mature female alates for synthesis cDNA as described previously. Synthesized cDNA was amplified with a degenerate primer set: 5′-[…]-3′ ([…]) and 5′-[…]-3′ ([…]) mostly conserved in TM2 and TM7 domains from insect PBAN-Rs [25]–[27]. PCR was performed for 35 cycles at 95°C for 30 s, 50°C for 30 s, and 72°C for 1 min. The PCR product was directly sequenced by Interdisciplinary Center for Biotechnology Research (ICBR, University of Florida), and then the sequence result was used to design further gene-specific primers to find 5′- and 3′- ends of the fire ant PBAN-R cDNA. 5′-RACE (GeneRacer kit, Invitrogen) was performed using primers 5′-[…]-3′ (from nucleotide 1106) and 5′-[…]-3′ (from nucleotide 588) by the 5′-RACE kit (Invitrogen). 3′-RACE was performed using primers 5′-[…] NTTYCA-3′ (from nucleotide 1199), 5′-[…] […]-3′ (from nucleotide 1336) and 5′-[…]-3′ (from nucleotide 1392). Then PCR products were inserted into a subcloning vector (TOPO-TA, Invitrogen) and confirmed the nucleotides by DNA sequence. Sequences of the receptor DNA and corresponding amino acids were analyzed by Genetyx software ver. 10 (Genetyx Corporation) and PredictProtein software. The ORF of PBAN-R cDNA was amplified using the sense primer of 5′- […] […]-3′ (from nucleotide 255 including the NotI site) and 5′-[…] […]-3′ (from nucleotide 2122 including the XbaI site). The PCR product was ligated into a pIBV5His vector (Invitrogen) for expression in Sf9 cells as described previously.
All peptides used in this study were synthesized or purchased from Sigma Genosys or Peninsula Laboratories. The preparation of cells, peptides, and Fluo-4AM with hymenopteran saline followed a previously described method. Cell fluorescence intensity in a 96-well cell-culture was measured using a plate reader (BMG's NovoStar) equipped with filters (excitation: 485 nm and emission: 520 nm), and one pipetter and two injectors. Fluorescence measurements from each well were taken every 10s. After 30s PBAN or FXPRL peptide (10 µL) was added by pipetter and fluorescent changes were measured for up to 3 min. Then, 1 µM ionomycin (5 µL) was added into the cells to obtain a maximum fluorescence reading. The effect of ligand-exposure was expressed relative to the maximum value obtained with ionomycin. Data were analyzed using Microsoft EXCEL as described previously and measured EC50 values of ligands were determined using GraphPad Prism 4.03 software.
The PBAN/pyrokinin family of peptides and their receptors are currently classified as PK1 or PK2. Diapause Hormone (DH) peptides and their receptors are classified as type PK1. PBAN and other PBAN family peptides, and their receptors are classified as type PK2 [12]. To verify our SolinPBAN-R assignment we determined binding affinities for a number of PK1 ( = DH type) and PK2 ( = PBAN type) neuropeptides to SolinPBAN-R (Table 1). We expressed SolinPBAN-R in Spodoptera frugiperda 9 (Sf9) insect cells, which enabled binding specificity studies by measurement of calcium-based fluorescence intensity (Fig. 3A and Table 1). […] The SolinPBAN/pyrokinin gene is expressed in all life stages in fire ant, from egg to adult; however, the disposition of the four SolinPBAN/pyrokinin peptides in each life stage, as well as the possibility of additional receptors is unknown and currently under investigation.

As to “GSGEDLSYGDAYEVDEDDHPLFVPRL-NH2 [SolinPBAN]”, the “EC50 value times less than HelzePBAN” value (18 nM vs. 56 nM, Sf9 cells expressing SolinPBAN-R) was determined as 3 times. Further, for the setting “N≥4”, the EC50 came to 18 nM.

For the substance “LSDDMPATPADQEMYRQDPEQIDSRTKYFSPRL-NH2 [HelzePBAN]”, the EC50 (N≥4) stood at 56 nM.

As to “NDVKDGAASGAHSDRLGLWFGPRL-NH2 [HelzePGN24 (DH)]”, the EC50 is more than 1000 nM.

In the case of SVPFKPRL-NH2 [DromePK2], the EC50 (N≥4) was found to be 163 nM.

As to TGPSASSGLWFGPRL-NH2 [DromePK1], the EC50 is more than 1000 nM.

For TSQDIASGMWFGPRL-NH2 [SolinDH], for the setting “N≥4”, the EC50 came out at 125 nM.

The values are drawn from article PMC3511524, “Ant Trail Pheromone Biosynthesis Is Triggered by a Neuropeptide Hormone” (PLoS ONE, 2012).
